Laboratory results: patent publication US10517844B2, “Inhibition of proline catabolism for the treatment of cancer and other therapeutic applications” (Buck Institute for Research on Aging, priority 2014, dated 2019)
“Also recorded” adds a separate entry of the source. Blank lines part the entries; values can stand above or below the compound they belong to.

Experiments:
[1] = target: T1, PRODH (Homo sapiens, UniProt O43272); assay: NADH-generating mitochondrial PRODH bioassay; assay type: biochemical
T1 construct: Mitochondria freshly isolated from PPG pretreated (15 h) and washed (30 min) ZR-75-1 cells; endogenous in cells; host or cells: mitochondria isolated from ZR-75-1 human breast cancer cells
T1 sequence (O43272 1-600): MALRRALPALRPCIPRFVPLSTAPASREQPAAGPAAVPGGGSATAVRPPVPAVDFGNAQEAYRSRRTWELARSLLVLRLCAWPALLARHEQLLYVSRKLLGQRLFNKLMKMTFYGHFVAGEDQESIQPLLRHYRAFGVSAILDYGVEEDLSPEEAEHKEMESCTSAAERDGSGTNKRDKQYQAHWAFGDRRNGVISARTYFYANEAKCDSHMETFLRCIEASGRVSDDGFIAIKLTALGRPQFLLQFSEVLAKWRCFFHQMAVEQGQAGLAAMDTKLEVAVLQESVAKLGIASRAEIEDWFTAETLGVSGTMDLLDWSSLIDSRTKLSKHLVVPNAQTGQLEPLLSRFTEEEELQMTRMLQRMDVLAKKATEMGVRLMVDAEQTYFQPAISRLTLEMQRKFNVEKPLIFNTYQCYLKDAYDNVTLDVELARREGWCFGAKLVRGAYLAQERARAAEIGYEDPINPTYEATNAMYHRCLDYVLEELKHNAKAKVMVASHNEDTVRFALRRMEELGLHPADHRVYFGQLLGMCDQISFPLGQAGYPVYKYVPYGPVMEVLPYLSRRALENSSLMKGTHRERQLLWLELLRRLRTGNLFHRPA
Description: Mitochondrial PRODH bioassays capable of measuring inhibitor activity are described in Goncalves et al. (2014) Redox Biol. 2: 901-909 (which is hereby incorporated by reference herein for this description). These include, inter alia: i) spectrophotometric detection of OAB reacted with proline generated P5C, ii) dual wavelength spectrophotometric detection (A566-A575) of endogenous cytochrome b566 reduction that occurs directly upon mitochondrial PRODH oxidation of proline, and iii) fluorescence spectrometry detection (lex 340 nm, lem 460 nm) of mitochondrial NADH levels as a function of substrate and inhibitor treatment. See details in Example below. The mitochondrial PRODH assay is described therein detects mitochondrial NADH production resulting downstream from PRODH production of P5C and then glutamate, while controlling for other sources of mitochondrial NADH production.
We have optimized our mitochondrial preparation technique and developed three different mitochondrial PRODH bioassays capable of measuring inhibitor activity which are now reported (Goncalves et al. (2014) Redox Biol. 2: 901-909); these include: i) spectrophotometric detection of OAB reacted with proline generated P5C, ii) dual wavelength spectrophotometric detection (A566-A575) of endogenous cytochrome b566 reduction that occurs directly upon mitochondrial PRODH oxidation of proline, and iii) fluorescence spectrometry detection (lex 340 nm, lem 460 nm) of mitochondrial NADH levels as a function of substrate and inhibitor treatment.
Briefly, in an exemplary protocol, cells are harvested from 2 to 4500 cm^2 dishes at 90% confluence, washed three times in ice-cold STE (250 mM sucrose, 5 mM Tris-HCl, 2 mM EGTA, pH7.4), scraped off, suspended in 50 ml STE and centrifuged for 10 min at 500 g. The pellet is resuspended in STE supplemented with 1% (w/v) fatty acid-free bovine serum albumin and homogenized (up to 20 strokes). The suspension is brought to 50 ml and centrifuged for 5 min at 1000 g. The supernatant is centrifuged for 10 min at 11,000 g. The pellet is resuspended in STE and centrifuged for 10 min at 10,000 g. The mitochondrial pellet is resuspended in STE and kept on ice. Protein is determined by Bradford assay(Biorad).
NAD(P)H is measured using 0.3 mg mitochondrial protein/ml at 37° C. in KHEPMB (KHE containing 5 mM K2HPO4, 2 mM MgCl2, 0.3% (w/v) fatty acid-free bovine serum albumin) plus 1 mM ADP and 2.5 μg/ml oligomycin. The reduction state of endogenous NAD(P)H Is determined by autofluorescence using the Pherastar microplate reader at λexcitation=340 nm, λemission=460 nm. NAD(P)H was assumed to be 0% reduced after 5 min without added substrate, then rotenone was added. The 100% reduced level was established with saturating substrate (e.g., 5 mM malate, glutamate and proline) and 4 μM rotenone. Intermediate values were determined as % reduced NAD(P)H relative to the 0% and 100% values.
For screening purposes, the NADH fluorescence bioassay can be routinely used as it is the most sensitive and amenable to higher throughput.

[2] = test system: BT474; assay: Growth inhibition, drug combination; assay type: cell-based, human; conditions: for Growth inhibiting interaction with CB-839: 72 h
[3] = test system: MCF7; assay: Growth inhibition / cell viability, drug combination; assay type: cell-based, human; conditions: for Growth inhibiting interaction with CB-839: 72 h; for Cell viability, interaction with CB-839: MCF7, single dose, 48 h
[4] = test system: DU4475; assay: as above; assay type: cell-based, human; conditions: for Growth inhibiting interaction with CB-839: 72 h
[5] = test system: ZR75-1; assay: Growth inhibition, drug combination; assay type: cell-based, human; conditions: for Growth inhibiting interaction with CB-839: 72 h
[6] = test system: MCF10A cells; assay: Cell viability, non-malignant cells; assay type: cell-based, human
[7] = test system: multiple breast cancer cell lines; assay: Growth inhibition in combination with CB-839; assay type: cell-based, human
[8] = test system: breast cancer models; assay: Interaction of PRODH inhibitors with p53 wt restoration; assay type: cell-based, human; conditions: various breast cancer models
Description: Our recent studies have shown that p53 wt restoration by the MDM2 inhibitor MI-63 triggers early and very different mitochondrial bioenergetic and global metabolic pool changes between malignant (e.g., MCF7, ZR-75-1, ZR-75-30, DU4475) and non-malignant (e.g., MCF-10A) mammary epithelial systems (Yau et al. (2011) Amer. Assoc. Cancer Res. 52: a3797, 2011; Yau et al. (2012) Amer. Assoc. Cancer Res. 53: a5160). Having first observed that PRODH siRNA knockdown promotes apoptosis in p53 wt breast cancer cells, we then evaluated PRODH knockdown in combination with MI-63 induced p53 restoration. […] Knockdown of P5CDH (the next enzymatic step in proline catabolism) produced a similar but less pronounced pro-apoptotic response in combination with MI-63, convincing us that PRODH is the most appropriate therapeutic target for synthetic lethality. […] Equally relevant, since PRODH provides a bypass source of mitochondrial glutamate for glutamine-addicted (e.g., GLS1 overexpressing) cancers, particularly those most sensitive to clinically emergent GLS1 inhibitors like CB-839 (Katt and Cerione (2014) Drug Discov. Today, 19: 450-457; Gross et al. (2014) Mol. Cancer Ther. 13: 890-901), our new data also supports the fact that PRODH inhibition induces a synthetic lethal anticancer response in combination with GLS1 inhibition among our various breast cancer models.

[9] = test system: DU4475 breast cancer cells; assay: Apoptosis by cleaved PARP Western blot; assay type: cell-based, human; conditions: DU4475, combined with MI-63
[10] = target: PRODH; conditions: cited from earlier work
[11] = test system: malignant breast epithelial cells; assay: Protein levels after p53 restoration by MI-63; assay type: cell-based, human
Description: New cancer treatments based on the restoration or reactivation of p53 wt function were first envisioned over a decade ago, and multiple pharmacological strategies have since emerged from preclinical studies that now show great clinical promise (12-17), particularly against malignancies like breast cancers in which 75% of all newly diagnosed cases express wildtype p53 (TCGA Network (2012). Nature 490: 61-70). […] Likewise, p53 induced metabolic changes linking proline metabolism to the urea cycle (OAT) and to glutaminolysis (GLS2) and the TCA cycle have been observed in our model systems (Yau et al. (2012) Amer. Assoc. Cancer Res. 53: a5160).

[12] = test system: ZR-75-1; assay: Protein degradation in treated culture (Western blot); assay type: cell-based, human
[13] = test system: PRODH; assay: Dietary PPG in adult Drosophila, Sluggish-A phenotype; assay type: in vivo; conditions: dietary 5 mM x 48 h
[14] = test system: Drosophila; assay: Drosophila lifespan after dietary PPG during oogenesis; assay type: in vivo; conditions: dietary 5 mM x 24 h during oogenesis, 2nd day collected eggs, 70 days
Method: Female Drosophila were starved for 4 h, then combined with males on liquid 5% sucrose food with or without 5 mM PPG. After 24 h, females were transferred to egg collection containers, and eggs collected after 1, 2, and 3 days. Collected eggs were transferred to bottles of regular food, separately for each collection day. Larvae developed normally, were transferred to vials after eclosion; vials were exchanged thrice weekly throughout life.

[15] = ZR-75-1 cells pretreated 15 h, washed 30 min

PRODH inhibiting activity ([1]; mitochondrial PRODH assay): retains PRODH inhibiting activity
SMILES: C#CC(C)NCC(=O)O (racemic) [(R/S)-PPG]

SMILES: O=C1CC[C@@H](C(=O)O)O1 [Compound 5-oxo, (S)-(+)-5-oxo-2-tetrahydrofurancarboxylic acid]
S versus R isomers in mitochondrial PRODH bioassay [1]: stereospecificity of S-5-oxo | PRODH enzymatic inhibition after washout ([1]; same washout (30 min)): completely lost (reversed); also recorded: completely lost by washout | Treatment interaction ([2]; BT474, 5-oxo (1 μM) + CB839 (1 μM)): Additive | Growth inhibiting interaction with CB-839 ([2]; BT474, +5-oxo (5 mM)): Additive | Treatment interaction ([3]; MCF7, 5-oxo (1 μM) + CB839 (1 μM)): Synergistic | Growth inhibiting interaction with CB-839 ([3]; MCF7, +5-oxo (5 mM)): Synergistic | Cell viability, interaction with CB-839 [3]: additive interactions | Treatment interaction ([4]; DU4475, 5-oxo (1 μM) + CB839 (1 μM)): Synergistic | Growth inhibiting interaction with CB-839 ([4]; DU4475, +5-oxo (5 mM)): Synergistic | Treatment interaction ([5]; ZR75-1, 5-oxo (1 μM) + CB839 (1 μM)): Synergistic | Growth inhibiting interaction with CB-839 ([5]; ZR75-1, +5-oxo (5 mM)): Synergistic | Cell viability / growth inhibition in non-malignant cells ([6]; combined with CB-839): no treatment effects | Cell viability / growth inhibition in non-malignant cells ([6]; combined with CB-839, listed as S-5-oxo): lack of any growth inhibition | Growth inhibition in combination with CB-839 ([7]; within 48 h): additive growth inhibition | Growth inhibition in combination with CB-839 ([7]; within 72 h): synergistic growth inhibition | Interaction with p53 wt restoration [8]: synthetic lethal interactions

SMILES: O=C(O)[C@@H]1CCCO1 [L-THFA, L-tetrahydro-2-furoic acid]
Viable cell growth in culture ([4]; DU4475, combined with MI-63): synthetic lethality effectiveness; also recorded: synergistically reduces viable cell growth | Apoptosis (c PARP production) over MI-63 treatment alone [9]: ~4 fold | Interaction with p53 wt restoration [8]: synthetic lethal interactions | Ki [10]: 300 µM

SMILES: CC(C)(C)C[C@H]1N[C@@H](C(=O)NCCN2CCOCC2)[C@H](c2cccc(Cl)c2F)[C@@]12C(=O)Nc1cc(Cl)ccc12 [MI-63]
Induction of PRODH protein levels [11]: ≥ 5 fold | P5C reductase (PYCR1) levels [11]: coordinate decrease | P5CDH protein level [11]: no change

SMILES: COc1ccc(C2=N[C@@H](c3ccc(Cl)cc3)[C@@H](c3ccc(Cl)cc3)N2C(=O)N2CCNC(=O)C2)c(OC(C)C)c1 [Nutlin-3a, reference compound]
Growth inhibiting interaction with CB-839 ([2]; BT474, +Nutlin-3a (5 μM)): No interaction | Growth inhibiting interaction with CB-839 ([3]; MCF7, +Nutlin-3a (5 μM)): Additive | Growth inhibiting interaction with CB-839 ([4]; DU4475, +Nutlin-3a (5 μM)): Synergistic | Growth inhibiting interaction with CB-839 ([5]; ZR75-1, +Nutlin-3a (5 μM)): Additive

SMILES: C#CCNCC(=O)O [PPG, N-propargylglycine]
PRODH enzymatic inhibition compared at equimolar inhibitor concentration ([1]; 2 mM): significantly greater PRODH enzymatic inhibition over S-5-oxo | Malate metabolism (NADH formation) by isolated mitochondria [1, 15]: not affected; also recorded: fully capable of metabolizing malate | Proline metabolism (NADH formation) by isolated mitochondria [1, 15]: remain unable to metabolize proline; also recorded: remained completely unable to metabolize proline | Cell viability, interaction with CB-839 [3]: additive interactions | Cell viability / growth inhibition in non-malignant cells ([6]; combined with CB-839): no treatment effects; also recorded: lack of any growth inhibition | Growth inhibition in combination with CB-839 ([7]; within 48 h): additive growth inhibition | Growth inhibition in combination with CB-839 ([7]; within 72 h): synergistic growth inhibition | Time of exposure to PRODH protein degradation [12]: ≤ 24 h | Cytoplasmic FAD containing protein MTHFR decline ([12]; ZR-75-1, 24-72 h): does not | Mitochondrial complex-1 protein NDUFS1 level ([12]; ZR-75-1, 24-72 h): also declines | Degradation of PRODH protein ([12]; ZR-75-1 culture treatment, within 24-72 h): 30-60% | Fly viability [13]: without loss of fly viability | PRODH inhibition in vivo (Sluggish-A phenotype) [13]: completely inhibits PRODH in vivo | Median and maximum lifespan [14]: significantly extends median and maximum lifespan | Interaction with p53 wt restoration [8]: synthetic lethal interactions
